Measured values from ChEMBL document CHEMBL5291721, “A preclinical secondary pharmacology resource illuminates target-adverse drug reaction associations of marketed drugs” (Nat Commun, 2023).
Where a SMILES comes first, the peptide text is derived from it.

Experiments:
[1] = biological target: T1, Alpha-2C adrenergic receptor (Homo sapiens, UniProt P18825); type: functional
T1 sequence (P18825 whole entry): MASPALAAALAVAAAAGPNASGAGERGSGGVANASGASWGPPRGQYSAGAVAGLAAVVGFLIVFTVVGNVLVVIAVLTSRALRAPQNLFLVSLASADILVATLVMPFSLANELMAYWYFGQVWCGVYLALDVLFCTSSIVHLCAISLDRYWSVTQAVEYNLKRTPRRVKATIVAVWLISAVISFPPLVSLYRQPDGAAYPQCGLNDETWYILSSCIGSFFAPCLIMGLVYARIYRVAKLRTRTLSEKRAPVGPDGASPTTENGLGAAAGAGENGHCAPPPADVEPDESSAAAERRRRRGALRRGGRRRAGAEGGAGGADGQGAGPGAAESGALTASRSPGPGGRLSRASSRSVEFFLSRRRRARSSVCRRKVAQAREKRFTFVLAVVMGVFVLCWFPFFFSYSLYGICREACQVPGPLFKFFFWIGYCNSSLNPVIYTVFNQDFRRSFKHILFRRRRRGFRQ

Adenosine receptor A3 = biological target: T2, Adenosine receptor A3 (Homo sapiens, UniProt P0DMS8)
T2 sequence (P0DMS8 whole entry): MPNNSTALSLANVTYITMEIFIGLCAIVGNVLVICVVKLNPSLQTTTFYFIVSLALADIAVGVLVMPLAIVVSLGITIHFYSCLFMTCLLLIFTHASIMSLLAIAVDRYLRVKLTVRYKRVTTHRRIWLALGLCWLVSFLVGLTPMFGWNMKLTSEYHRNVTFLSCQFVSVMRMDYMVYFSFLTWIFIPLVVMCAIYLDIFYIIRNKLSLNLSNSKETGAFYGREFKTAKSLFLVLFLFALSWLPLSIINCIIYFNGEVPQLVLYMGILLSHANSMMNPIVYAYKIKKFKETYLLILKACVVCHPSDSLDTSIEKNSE

[2] = biological target: Voltage-dependent L-type calcium channel subunit alpha-1C (Rattus norvegicus, UniProt P22002); type: functional
[3] = biological target: T3, Muscarinic acetylcholine receptor M2 (Homo sapiens, UniProt P08172); type: functional, cell-based
T3 sequence (P08172 whole entry): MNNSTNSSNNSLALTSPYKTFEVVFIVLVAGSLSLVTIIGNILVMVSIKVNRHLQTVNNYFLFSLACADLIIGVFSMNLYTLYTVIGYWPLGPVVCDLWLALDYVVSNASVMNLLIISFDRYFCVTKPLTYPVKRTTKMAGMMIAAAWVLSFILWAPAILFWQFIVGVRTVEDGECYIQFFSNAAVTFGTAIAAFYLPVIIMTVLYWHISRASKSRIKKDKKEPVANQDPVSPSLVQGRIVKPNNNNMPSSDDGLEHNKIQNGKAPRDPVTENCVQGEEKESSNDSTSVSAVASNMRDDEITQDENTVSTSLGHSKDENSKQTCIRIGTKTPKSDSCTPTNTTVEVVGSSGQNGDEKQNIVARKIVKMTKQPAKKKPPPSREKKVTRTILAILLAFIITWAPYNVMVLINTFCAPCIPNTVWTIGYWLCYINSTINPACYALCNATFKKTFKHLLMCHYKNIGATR

[4] = biological target: T4, Gastrin/cholecystokinin type B receptor (Homo sapiens, UniProt P32239)
T4 sequence (P32239 whole entry): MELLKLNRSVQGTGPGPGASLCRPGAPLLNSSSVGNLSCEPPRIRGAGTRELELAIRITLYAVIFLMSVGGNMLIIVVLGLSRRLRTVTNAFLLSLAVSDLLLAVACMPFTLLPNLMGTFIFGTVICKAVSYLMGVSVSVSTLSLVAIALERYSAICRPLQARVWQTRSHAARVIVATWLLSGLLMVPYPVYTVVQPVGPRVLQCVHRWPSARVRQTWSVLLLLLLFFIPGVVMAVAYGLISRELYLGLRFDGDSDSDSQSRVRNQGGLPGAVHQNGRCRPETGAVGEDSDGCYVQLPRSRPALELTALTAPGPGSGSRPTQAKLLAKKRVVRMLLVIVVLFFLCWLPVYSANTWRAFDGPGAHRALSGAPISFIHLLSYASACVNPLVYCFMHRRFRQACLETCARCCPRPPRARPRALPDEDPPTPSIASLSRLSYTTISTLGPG

Progesterone receptor = biological target: T5, Progesterone receptor (Homo sapiens, UniProt P06401); type: functional
T5 sequence (P06401 whole entry): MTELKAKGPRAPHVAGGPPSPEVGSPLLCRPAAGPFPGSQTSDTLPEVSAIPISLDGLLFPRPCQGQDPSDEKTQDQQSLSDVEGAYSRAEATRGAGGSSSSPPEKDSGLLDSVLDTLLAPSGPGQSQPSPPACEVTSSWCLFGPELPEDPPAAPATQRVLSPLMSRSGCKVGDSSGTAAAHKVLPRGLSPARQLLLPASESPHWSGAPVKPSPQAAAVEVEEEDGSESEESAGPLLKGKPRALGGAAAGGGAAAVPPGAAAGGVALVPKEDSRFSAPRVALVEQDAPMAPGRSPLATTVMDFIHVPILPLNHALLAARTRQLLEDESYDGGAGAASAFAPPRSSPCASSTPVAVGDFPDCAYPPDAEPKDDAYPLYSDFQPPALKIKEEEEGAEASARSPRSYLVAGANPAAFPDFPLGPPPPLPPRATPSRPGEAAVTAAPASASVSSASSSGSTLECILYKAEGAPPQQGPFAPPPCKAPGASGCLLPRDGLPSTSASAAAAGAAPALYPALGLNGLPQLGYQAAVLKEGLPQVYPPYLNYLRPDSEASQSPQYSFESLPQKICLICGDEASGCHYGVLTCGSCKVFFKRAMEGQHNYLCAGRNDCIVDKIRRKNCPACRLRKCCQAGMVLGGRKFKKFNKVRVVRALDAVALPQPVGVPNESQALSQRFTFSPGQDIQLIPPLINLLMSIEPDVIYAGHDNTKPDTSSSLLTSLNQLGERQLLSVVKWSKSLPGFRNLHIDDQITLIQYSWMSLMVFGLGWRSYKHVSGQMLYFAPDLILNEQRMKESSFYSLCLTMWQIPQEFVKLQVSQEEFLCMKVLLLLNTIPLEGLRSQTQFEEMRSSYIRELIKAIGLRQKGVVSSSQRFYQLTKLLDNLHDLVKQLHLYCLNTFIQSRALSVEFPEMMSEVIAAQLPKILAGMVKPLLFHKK
Note: assay procedure not described here.

Chain of Voltage-dependent L-type calcium channel subunit alpha-1C (P22002 whole entry): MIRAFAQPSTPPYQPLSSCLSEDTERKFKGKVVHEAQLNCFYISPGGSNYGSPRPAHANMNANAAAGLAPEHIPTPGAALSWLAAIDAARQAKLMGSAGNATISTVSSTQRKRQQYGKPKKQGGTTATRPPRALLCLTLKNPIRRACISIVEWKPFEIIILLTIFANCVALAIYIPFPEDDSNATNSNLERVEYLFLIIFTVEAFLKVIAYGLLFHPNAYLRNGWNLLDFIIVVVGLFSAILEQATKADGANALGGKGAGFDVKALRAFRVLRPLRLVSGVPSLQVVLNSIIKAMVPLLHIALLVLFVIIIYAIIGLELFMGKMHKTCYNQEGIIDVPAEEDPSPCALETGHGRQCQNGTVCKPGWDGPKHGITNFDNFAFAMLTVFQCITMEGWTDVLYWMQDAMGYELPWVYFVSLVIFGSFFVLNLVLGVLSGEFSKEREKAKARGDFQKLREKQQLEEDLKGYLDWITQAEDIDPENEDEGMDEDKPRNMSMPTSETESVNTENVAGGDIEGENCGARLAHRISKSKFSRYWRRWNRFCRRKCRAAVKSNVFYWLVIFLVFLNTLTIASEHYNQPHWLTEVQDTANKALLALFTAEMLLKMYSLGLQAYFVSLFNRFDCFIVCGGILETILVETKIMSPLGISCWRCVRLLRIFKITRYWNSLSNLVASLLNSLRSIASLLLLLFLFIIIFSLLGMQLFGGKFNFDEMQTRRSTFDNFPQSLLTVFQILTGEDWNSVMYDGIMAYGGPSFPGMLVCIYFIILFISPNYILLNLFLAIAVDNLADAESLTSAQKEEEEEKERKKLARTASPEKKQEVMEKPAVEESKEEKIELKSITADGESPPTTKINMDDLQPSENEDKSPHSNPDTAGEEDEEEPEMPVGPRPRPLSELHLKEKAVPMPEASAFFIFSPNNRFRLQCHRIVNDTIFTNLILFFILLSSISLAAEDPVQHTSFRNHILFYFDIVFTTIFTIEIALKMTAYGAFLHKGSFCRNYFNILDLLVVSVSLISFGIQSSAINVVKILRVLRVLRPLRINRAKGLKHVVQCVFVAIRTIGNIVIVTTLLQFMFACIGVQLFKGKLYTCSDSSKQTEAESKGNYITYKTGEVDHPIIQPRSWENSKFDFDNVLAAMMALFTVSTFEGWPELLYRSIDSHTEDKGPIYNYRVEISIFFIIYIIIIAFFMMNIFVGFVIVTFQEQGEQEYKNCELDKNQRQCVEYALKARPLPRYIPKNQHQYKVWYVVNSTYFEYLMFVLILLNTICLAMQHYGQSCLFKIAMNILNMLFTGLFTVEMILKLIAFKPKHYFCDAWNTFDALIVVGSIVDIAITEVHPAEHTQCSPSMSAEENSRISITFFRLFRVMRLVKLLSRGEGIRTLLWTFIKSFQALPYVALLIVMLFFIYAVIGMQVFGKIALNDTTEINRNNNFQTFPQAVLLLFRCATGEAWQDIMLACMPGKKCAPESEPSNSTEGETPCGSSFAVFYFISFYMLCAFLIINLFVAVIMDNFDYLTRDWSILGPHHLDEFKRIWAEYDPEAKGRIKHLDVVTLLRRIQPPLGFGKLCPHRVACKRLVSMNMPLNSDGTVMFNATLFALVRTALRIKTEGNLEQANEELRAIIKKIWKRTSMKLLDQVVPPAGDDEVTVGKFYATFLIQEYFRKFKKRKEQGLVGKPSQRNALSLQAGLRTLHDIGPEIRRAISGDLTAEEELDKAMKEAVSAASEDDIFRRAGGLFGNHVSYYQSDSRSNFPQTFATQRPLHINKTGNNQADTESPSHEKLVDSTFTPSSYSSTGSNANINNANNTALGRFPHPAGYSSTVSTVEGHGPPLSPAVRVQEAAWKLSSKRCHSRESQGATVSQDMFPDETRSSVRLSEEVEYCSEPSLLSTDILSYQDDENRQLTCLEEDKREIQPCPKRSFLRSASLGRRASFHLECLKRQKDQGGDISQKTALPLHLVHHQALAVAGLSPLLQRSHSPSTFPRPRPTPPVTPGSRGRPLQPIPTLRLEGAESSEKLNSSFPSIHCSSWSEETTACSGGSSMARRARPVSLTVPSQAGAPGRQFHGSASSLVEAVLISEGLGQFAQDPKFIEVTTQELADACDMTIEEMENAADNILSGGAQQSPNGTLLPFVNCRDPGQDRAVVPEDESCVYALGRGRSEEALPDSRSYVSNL

| SMILES | AC50 [1] | AC50 (Adenosine receptor A3) | AC50 [2] | AC50 [3] | AC50 [4] | AC50 (Progesterone receptor) |
| --- | --- | --- | --- | --- | --- | --- |
| OCC(CO)N[C@H]1C[C@](O)(CO)[C@@H](O)[C@H](O)[C@H]1O [VOGLIBOSE] | > 30 µM | > 30 µM | > 30 µM | > 30 µM | > 30 µM | > 30 µM |
| Cc1cccc(Nc2ccncc2S(=O)(=O)NC(=O)NC(C)C)c1 [TORSEMIDE] | > 10 µM | > 30 µM | > 10 µM | > 10 µM | > 30 µM | > 10 µM |
| CCCO[C@H]1[C@@H]([C@@H](COCc2ccc(Cl)cc2)OCc2ccc(Cl)cc2)OC(OCC)[C@@H]1O (some centres undefined) [CLOBENOSIDE] | > 30 µM | 20 µM | > 30 µM | > 30 µM | > 30 µM | 22 µM |
| Nc1nc(Cl)nc2c1ncn2[C@@H]1O[C@H](CO)[C@@H](O)[C@@H]1F [CLOFARABINE] | > 30 µM | 18.2 µM | > 30 µM | > 10 µM | > 30 µM | > 30 µM |
| CN(C)CCOCC(=O)NC12CC3CC(CC(C3)C1)C2 [TROMANTADINE] | > 30 µM | > 30 µM | > 30 µM | > 30 µM | > 30 µM | > 30 µM |
| CCN(CC)CCCN(c1ccccc1)C1Cc2ccccc2C1 [APRINDINE] | 7.9 µM | > 30 µM | > 10 µM | > 30 µM | > 30 µM | > 30 µM |
| CCN(CC)Cc1nccn1-c1ccc([N+](=O)[O-])cc1C(=O)c1ccccc1Cl [NIZOFENONE] | > 30 µM | > 30 µM | > 30 µM | > 30 µM | > 30 µM | > 30 µM |
| CCc1ccc(C(=O)C(C)CN2CCCCC2)cc1 (centres undefined) [EPERISONE] | 2.09 µM | > 30 µM | > 30 µM | > 30 µM | > 30 µM | > 30 µM |
| CC(C)CN(C[C@@H](O)[C@H](Cc1ccccc1)NC(=O)O[C@H]1CCOC1)S(=O)(=O)c1ccc(N)cc1 | > 10 µM | > 30 µM | > 10 µM | > 10 µM | > 30 µM | > 10 µM |
| COc1cc(N)cn[n+]1-c1ccccc1 [AMEZINIUM METILSULFATE] | > 30 µM | > 30 µM | > 30 µM | > 30 µM | > 30 µM | > 30 µM |
| Cc1ccc(S(=O)(=O)NC(=O)N[C@H]2[C@H]3CC[C@@](C)([C@H]2O)C3(C)C)cc1 [GLIBORNURIDE] | > 30 µM | > 30 µM | > 30 µM | > 30 µM | > 30 µM | > 30 µM |
| COC(=O)[C@H]1[C@H]2C[C@@H]3c4[nH]c5ccccc5c4CCN3C[C@H]2C[C@@H](OC(=O)c2cc(OC)c(OC)c(OC)c2)[C@@H]1OC [DESERPIDINE] | 12 µM | 15.8 µM | > 10 µM | > 10 µM | > 30 µM | > 30 µM |
| CNCCc1ccccn1 [BETAHISTINE] | > 30 µM | > 30 µM | > 30 µM | > 30 µM | > 30 µM | > 30 µM |
| C[C@H](N)C(=O)N[C@@H](CCC(N)=O)C(=O)O [ALANYL GLUTAMINE] (H-Ala-Gln-OH) | > 30 µM | > 30 µM | > 30 µM | > 30 µM | > 30 µM | > 30 µM |
| CCN(C(C)=O)c1cccc(-c2ccnc3c(C#N)cnn23)c1 [ZALEPLON] | > 10 µM | > 30 µM | > 10 µM | > 10 µM | > 30 µM | > 30 µM |
| CCCCOC(=O)C(=O)Nc1cccc(-c2nnn[nH]2)c1 [TAZANOLAST] | > 30 µM | > 30 µM | > 30 µM | > 30 µM | > 30 µM | > 30 µM |
| COc1ccc(C(Cl)=C(c2ccc(OC)cc2)c2ccc(OC)cc2)cc1 [CHLOROTRIANISENE] | > 30 µM | 28 µM | > 10 µM | > 30 µM | > 30 µM | > 30 µM |
| CCCCOC(=O)c1ccc(N)cc1 [BUTAMBEN] | > 30 µM | > 30 µM | > 30 µM | > 30 µM | > 30 µM | > 30 µM |
| CO/N=C(\C(=O)N[C@@H]1C(=O)N2C(C(=O)[O-])=C(C[n+]3ccc(N)n3CCO)CS[C@H]12)c1csc(N)n1 [CEFOSELIS] | > 30 µM | > 30 µM | > 30 µM | > 30 µM | > 30 µM | > 30 µM |
| O=C(O)c1ccc2nc(-c3cc(Cl)cc(Cl)c3)oc2c1 | > 30 µM | > 30 µM | > 30 µM | > 30 µM | > 10 µM | > 30 µM |
| CCC(NC(C)C)C(O)c1ccc(O)c(O)c1 (centres undefined) [ISOETHARINE] | > 30 µM | > 30 µM | > 30 µM | > 30 µM | > 30 µM | > 30 µM |
| CC1=C(/C=C/C(C)=C/C=C/C(C)=C/C(=O)Oc2c(C)c(C)c3c(c2C)CCC(C)(CCCC(C)CCCC(C)CCCC(C)C)O3)C(C)(C)CCC1 (centres undefined) [TRETINOIN TOCOFERIL] | > 30 µM | > 30 µM | > 30 µM | > 30 µM | > 30 µM | 19 µM |
| C=C(c1ccccc1OCc1cccc(Cl)c1)n1ccnc1 [CROCONAZOLE] | > 10 µM | 11.5 µM | 18.8 µM | > 10 µM | > 30 µM | > 30 µM |
| CN1CCCN=C1/C=C/c1cccc(O)c1 [OXANTEL] | > 30 µM | 22 µM | > 30 µM | > 30 µM | > 10 µM | 10 µM |
